{"source": "patent US20140308274A1", "about": "“COMBINATION CANCER TREATMENTS UTILIZING SYNTHETIC OLIGONUCLEOTIDES AND EGFR-TKI INHIBITORS” (MIRNA THERAPEUTICS, INC., priority 2013, published 2014)", "key": {"H1299 cells": {"system": "H1299 cells", "assay": "AlamarBlue cellular proliferation, fixed concentration model (erlotinib serial dilution +/- miRNA)", "assay_type": "cell-based", "details": "Homo sapiens"}, "A549 cells": {"system": "A549 cells", "assay": "AlamarBlue cellular proliferation, matrix of erlotinib-miR-34a ratios", "assay_type": "cell-based, Human", "details": "for concentration required as single agent to induce ~80% cancer cell inhibition: A549, actual data points", "method": "(§1) Each data point was performed in triplicates.\nLevels of cancer cell inhibition, CI and DRI values were determined for each combination and graphed in CI plots, isobolograms and curve-shift diagrams."}, "[1]": {"system": "Hep3B, C3A, HepG2 and Huh7", "assay": "AlamarBlue cellular proliferation, single agents and fixed ratio method in hepatocellular carcinoma cells", "assay_type": "cell-based", "details": "72 h, read-out: IC50 of erlotinib alone, 3 days", "method": "as §1\nFront Biosci (Elite Ed) 2: 241-9. […] Id."}, "HepG2": {"system": "HepG2", "assay": "AlamarBlue cellular proliferation, isobologram of erlotinib with miR-34a", "assay_type": "cell-based", "method": "as §1"}, "H1299": {"system": "H1299", "details": "H1299 (resistant); reported in the scientific literature; cited from earlier work"}, "H460 [2]": {"system": "H460", "details": "H460 (resistant); reported in the scientific literature; cited from earlier work"}, "H460 [3]": {"system": "H460", "assay": "cells", "details": "Homo sapiens, NCI-H460, 72 h"}, "NSCLC": {"system": "NSCLC", "details": "patients with NSCLC; cited from earlier work"}, "[4]": {"system": "breast cancer cell lines BT-549, MCF-7, MDA-MB-231, T47D", "assay": "AlamarBlue cellular proliferation, lapatinib and miR-Rx34 combination index", "assay_type": "cell-based, human", "details": "~IC50 ratio", "method": "The human breast cancer cell lines BT-549, T47D, MDA-MD-231 and MCF-7 (from ATCC) were used to evaluate the combinatorial effects of mir-Rx34 and lapatinib. Lapatinib was purchased from LC Laboratories (Woburn, Mass.).\nThe combination studies were carried out at ˜IC50 ratio of lapatinib and miR-Rx34 (ratio=IC50 lapatinib/IC50 miR-Rx34). […] The ratios of lapatinib/miR-Rx34a are 4000 in BT-549, 3333.3 in MDA-MD-231, 5000 in MCF-7 and 6000 in T47D. Cells were reversed transfected with miR-Rx34a, lapatinib were added 3 days post transfection, and cell proliferation were measured 3 days post lapatinib addition by AlamarBlue.\nCombinations that are considered synergistic and have clinical value are those with a low CI value (<0.6) at maximal cancer cell inhibition. […] Symbols represent CI values derived from actual data points."}, "A549 and H460": {"system": "A549 and H460", "details": "cited from earlier work"}}, "note": "Where two headings read alike, the source gives them in different places."}
{"compound": "C#Cc1cccc(Nc2ncnc3cc(OCCOC)c(OCCOC)cc23)c1", "note": "[Erlotinib, N-(3-ethynylphenyl)-6,7-bis(2-methoxyethoxy)-4-quinazolinamine]", "values": [{"measurement": "IC50", "setting": "H1299 cells; NCI-H1299, 72 h, read-out: IC50 of erlotinib alone, H1299 cells, 3 days", "value": 11, "unit": "µM"}, {"measurement": "IC50", "setting": "H1299 cells; NCI-H1299, 72 h, read-out: IC50", "value": 21.5, "unit": "µM"}, {"measurement": "IC50", "setting": "H1299 cells; NCI-H1299, read-out: erlotinib IC50 in combination with miR-34a, H1299 cells, 0.3 nM miR-34a", "value": 3, "unit": "µM"}, {"measurement": "concentration required as single agent to induce ~80% cancer cell inhibition", "setting": "A549 cells", "value": 100, "unit": "µM"}, {"measurement": "erlotinib needed to induce ~80% inhibition in combination", "setting": "A549 cells; A549, used with 12 nM miR-34a", "value": 2.56, "unit": "µM"}, {"measurement": "reduction of the dose requirement of erlotinib", "setting": "A549 cells; A549, ~80% inhibition, with 12 nM miR-34a", "value": "~40", "unit": "fold"}, {"measurement": "IC50", "setting": "[1]", "value": "≥ 25", "unit": "µM"}, {"measurement": "erlotinib concentration in combination with miR-34a to inhibit cancer cells by 50%", "setting": "HepG2; HepG2", "value": 2, "unit": "µM"}, {"measurement": "lowering of erlotinib dose compared to its single use", "setting": "HepG2; HepG2, 50% inhibition", "value": 75, "unit": "fold"}, {"measurement": "IC50", "setting": "H1299", "value": "8.6 to 38", "unit": "µM"}, {"measurement": "IC50", "setting": "H460 [2]", "value": "8 to 24", "unit": "µM"}, {"measurement": "IC50", "setting": "H460 [3]", "value": 26.3, "unit": "µM"}, {"measurement": "extension of overall patient survival", "setting": "NSCLC", "value": "~2", "unit": "months"}]}
{"compound": "miR-34a: Synthetic miR-34a mimic; UGGCAGUGUCUUAGCUGGUUGUU, SEQ ID NO: 1 (chemistry not given here)", "values": [{"measurement": "concentration required as single agent to induce ~80% cancer cell inhibition", "setting": "A549 cells", "value": 0.03, "unit": "µM"}, {"measurement": "interaction with lapatinib (combination index)", "setting": "[4]", "value": "synergized with lapatinib"}]}
{"compound": "COc1cc2ncnc(Nc3ccc(F)c(Cl)c3)c2cc1OCCCN1CCOCC1", "note": "[gefitinib]", "values": [{"measurement": "extension of overall patient survival", "setting": "NSCLC", "value": "~2", "unit": "months"}]}
{"compound": "miR-126: microRNA UCGUACCGUGAGUAAUAAUGC, SEQ ID NO: 3 (chemistry not given here)", "values": [{"measurement": "reduction of gefitinib IC50", "setting": "A549 and H460", "value": "~7", "unit": "fold"}]}
